From the NIST ThermoML archive (doi:10.1021/acs.jced.7b00106)
Numbers after ± are expanded uncertainties.

Settings: Hot wire method

FC(F)(F)/C=C/Cl [(E)-1-chloro-3,3,3-trifluoroprop-1-ene]
Settings	thermal conductivity [W/m/K]
422.34 K, 6615 kPa, Liquid	0.05507 ± 0.0016
422.35 K, 1562 kPa, Fluid (supercritical or subcritical phases)	0.02132 ± 0.0061
422.37 K, 5710 kPa, Liquid	0.054 ± 0.0022
422.38 K, 5711 kPa, Liquid	0.05406 ± 0.0015
422.4 K, 4942 kPa, Liquid	0.05308 ± 0.0016
422.42 K, 802 kPa, Fluid (supercritical or subcritical phases)	0.02084 ± 0.0013
422.42 K, 1401 kPa, Fluid (supercritical or subcritical phases)	0.0211 ± 0.0043
422.42 K, 4947 kPa, Liquid	0.05316 ± 0.0045
422.43 K, 1403 kPa, Fluid (supercritical or subcritical phases)	0.02113 ± 0.0024
422.44 K, 4300 kPa, Liquid	0.05228 ± 0.0033
422.44 K, 4307 kPa, Liquid	0.05231 ± 0.0024
422.45 K, 3760 kPa, Liquid	0.05158 ± 0.0038
422.45 K, 3761 kPa, Liquid	0.05162 ± 0.0038
422.48 K, 2616 kPa, Liquid	0.05022 ± 0.0044
422.48 K, 2911 kPa, Liquid	0.05073 ± 0.0075
422.48 K, 3308 kPa, Liquid	0.05108 ± 0.0047
422.48 K, 3310 kPa, Liquid	0.05105 ± 0.0047
422.49 K, 1222 kPa, Fluid (supercritical or subcritical phases)	0.02095 ± 0.003
422.49 K, 2914 kPa, Liquid	0.05068 ± 0.0048
422.5 K, 1220 kPa, Fluid (supercritical or subcritical phases)	0.02096 ± 0.0031
422.52 K, 28114 kPa, Liquid	0.07065 ± 0.0043
422.54 K, 8781 kPa, Liquid	0.05725 ± 0.0012
422.54 K, 28086 kPa, Liquid	0.07055 ± 0.0034
422.55 K, 7612 kPa, Liquid	0.0561 ± 0.0029
422.55 K, 8782 kPa, Liquid	0.05725 ± 0.0013
422.56 K, 28121 kPa, Liquid	0.0704 ± 0.0019
422.57 K, 1031 kPa, Fluid (supercritical or subcritical phases)	0.02086 ± 0.0028
422.57 K, 1032 kPa, Fluid (supercritical or subcritical phases)	0.02088 ± 0.003
422.57 K, 6610 kPa, Liquid	0.0551 ± 0.00065
422.58 K, 6615 kPa, Liquid	0.05511 ± 0.0015
422.58 K, 28093 kPa, Liquid	0.07032 ± 0.0027
422.61 K, 5714 kPa, Liquid	0.05406 ± 0.00091
422.62 K, 5709 kPa, Liquid	0.05406 ± 0.0009
422.66 K, 4943 kPa, Liquid	0.05316 ± 0.0023
422.66 K, 4946 kPa, Liquid	0.05333 ± 0.0022
422.67 K, 800 kPa, Fluid (supercritical or subcritical phases)	0.02086 ± 0.0011
422.69 K, 11667 kPa, Liquid	0.05975 ± 0.00074
422.7 K, 4304 kPa, Liquid	0.05243 ± 0.0027
422.7 K, 4305 kPa, Liquid	0.05239 ± 0.0037
422.71 K, 3758 kPa, Liquid	0.05174 ± 0.0045
422.71 K, 3761 kPa, Liquid	0.05177 ± 0.0048
422.72 K, 20061 kPa, Liquid	0.0657 ± 0.00077
422.73 K, 3307 kPa, Liquid	0.0512 ± 0.0041
422.73 K, 3310 kPa, Liquid	0.05125 ± 0.0067
422.74 K, 10145 kPa, Liquid	0.0585 ± 0.0023
422.78 K, 17484 kPa, Liquid	0.06408 ± 0.00072
422.79 K, 8779 kPa, Liquid	0.05724 ± 0.00068
422.79 K, 8783 kPa, Liquid	0.05727 ± 0.00068
422.79 K, 17485 kPa, Liquid	0.06404 ± 0.00093
422.79 K, 25690 kPa, Liquid	0.06898 ± 0.001
422.8 K, 7613 kPa, Liquid	0.05618 ± 0.0015
422.8 K, 7618 kPa, Liquid	0.05616 ± 0.0015
422.8 K, 25708 kPa, Liquid	0.06904 ± 0.0028
422.8 K, 28111 kPa, Liquid	0.07046 ± 0.004
422.8 K, 28112 kPa, Liquid	0.07051 ± 0.0039
422.82 K, 15379 kPa, Liquid	0.06258 ± 0.00071
422.83 K, 6608 kPa, Liquid	0.05508 ± 0.001
422.83 K, 6614 kPa, Liquid	0.05515 ± 0.001
422.83 K, 28116 kPa, Liquid	0.07034 ± 0.00099
422.84 K, 15382 kPa, Liquid	0.06256 ± 0.0013
422.84 K, 28116 kPa, Liquid	0.07035 ± 0.00099
422.86 K, 22725 kPa, Liquid	0.06729 ± 0.0073
422.87 K, 5712 kPa, Liquid	0.0541 ± 0.0021
422.87 K, 5716 kPa, Liquid	0.05417 ± 0.0021
422.87 K, 22727 kPa, Liquid	0.06729 ± 0.011
422.89 K, 13389 kPa, Liquid	0.06114 ± 0.0007
422.89 K, 13396 kPa, Liquid	0.0611 ± 0.0019
422.92 K, 4948 kPa, Liquid	0.05329 ± 0.00074
422.93 K, 4948 kPa, Liquid	0.05326 ± 0.00074
422.93 K, 11677 kPa, Liquid	0.05979 ± 0.00072
422.94 K, 11666 kPa, Liquid	0.05974 ± 0.00068
422.96 K, 4303 kPa, Liquid	0.05247 ± 0.0015
422.96 K, 4305 kPa, Liquid	0.05253 ± 0.0032
422.96 K, 20042 kPa, Liquid	0.06564 ± 0.0037
422.97 K, 20051 kPa, Liquid	0.06568 ± 0.0014
423 K, 10141 kPa, Liquid	0.05847 ± 0.00068
423 K, 10146 kPa, Liquid	0.05853 ± 0.00068
423 K, 25690 kPa, Liquid	0.06899 ± 0.00079
423.02 K, 28110 kPa, Liquid	0.07042 ± 0.0022
423.03 K, 28120 kPa, Liquid	0.07037 ± 0.00086
423.04 K, 17472 kPa, Liquid	0.06399 ± 0.002
423.04 K, 17483 kPa, Liquid	0.06401 ± 0.00088
423.05 K, 25698 kPa, Liquid	0.06896 ± 0.00087
423.06 K, 8781 kPa, Liquid	0.05726 ± 0.00088
423.06 K, 8783 kPa, Liquid	0.05728 ± 0.00068
423.07 K, 7608 kPa, Liquid	0.05614 ± 0.0007
423.07 K, 7616 kPa, Liquid	0.05619 ± 0.00075
423.07 K, 15379 kPa, Liquid	0.06256 ± 0.00085
423.08 K, 15382 kPa, Liquid	0.06257 ± 0.00085
423.1 K, 6613 kPa, Liquid	0.05516 ± 0.001
423.11 K, 6611 kPa, Liquid	0.05515 ± 0.001
423.11 K, 22703 kPa, Liquid	0.06725 ± 0.0011
423.11 K, 28104 kPa, Liquid	0.07029 ± 0.0024
423.12 K, 22728 kPa, Liquid	0.06757 ± 0.00082
423.12 K, 28121 kPa, Liquid	0.07049 ± 0.0008
423.14 K, 5716 kPa, Liquid	0.05419 ± 0.0019
423.15 K, 5712 kPa, Liquid	0.0542 ± 0.0023
423.15 K, 13390 kPa, Liquid	0.06109 ± 0.00084
423.15 K, 13399 kPa, Liquid	0.06114 ± 0.00072
423.2 K, 4943 kPa, Liquid	0.05335 ± 0.003
423.2 K, 4945 kPa, Liquid	0.0533 ± 0.0015
423.2 K, 11667 kPa, Liquid	0.05975 ± 0.0027
423.21 K, 11671 kPa, Liquid	0.05977 ± 0.00079
423.21 K, 20041 kPa, Liquid	0.06545 ± 0.00085
423.21 K, 20058 kPa, Liquid	0.06566 ± 0.00096
423.26 K, 25692 kPa, Liquid	0.06895 ± 0.00089
423.26 K, 25702 kPa, Liquid	0.06897 ± 0.00091
423.27 K, 10146 kPa, Liquid	0.05849 ± 0.00098
423.28 K, 10147 kPa, Liquid	0.05852 ± 0.00098
423.29 K, 17476 kPa, Liquid	0.06396 ± 0.0035
423.3 K, 17478 kPa, Liquid	0.064 ± 0.0034
423.3 K, 28106 kPa, Liquid	0.07034 ± 0.0012
423.31 K, 28126 kPa, Liquid	0.07033 ± 0.0038
423.32 K, 8771 kPa, Liquid	0.05728 ± 0.0011
423.33 K, 8783 kPa, Liquid	0.05728 ± 0.00086
423.35 K, 7611 kPa, Liquid	0.05616 ± 0.0013
423.35 K, 7616 kPa, Liquid	0.05621 ± 0.0013
423.35 K, 15369 kPa, Liquid	0.06251 ± 0.00073
423.35 K, 15382 kPa, Liquid	0.06259 ± 0.00078
423.37 K, 22716 kPa, Liquid	0.06724 ± 0.0051
423.37 K, 22722 kPa, Liquid	0.06728 ± 0.008
423.38 K, 6613 kPa, Liquid	0.0552 ± 0.0011
423.38 K, 28103 kPa, Liquid	0.07024 ± 0.0011
423.39 K, 28113 kPa, Liquid	0.07028 ± 0.0041
423.4 K, 6606 kPa, Liquid	0.05518 ± 0.001
423.43 K, 13394 kPa, Liquid	0.06111 ± 0.00071
423.44 K, 5711 kPa, Liquid	0.05425 ± 0.0016
423.44 K, 5715 kPa, Liquid	0.05429 ± 0.0026
423.44 K, 13394 kPa, Liquid	0.06111 ± 0.00071
423.48 K, 20043 kPa, Liquid	0.06561 ± 0.0024
423.48 K, 20053 kPa, Liquid	0.06564 ± 0.00096
423.49 K, 11667 kPa, Liquid	0.05991 ± 0.0007
423.49 K, 11670 kPa, Liquid	0.05977 ± 0.00087
423.54 K, 25699 kPa, Liquid	0.06893 ± 0.0019
423.55 K, 25702 kPa, Liquid	0.06894 ± 0.0019
423.56 K, 10145 kPa, Liquid	0.05848 ± 0.00087
423.56 K, 10147 kPa, Liquid	0.05849 ± 0.00087
423.57 K, 17456 kPa, Liquid	0.06393 ± 0.00072
423.57 K, 17477 kPa, Liquid	0.0642 ± 0.00093
423.6 K, 28105 kPa, Liquid	0.07025 ± 0.00085
423.62 K, 8777 kPa, Liquid	0.05731 ± 0.00086
423.62 K, 28121 kPa, Liquid	0.07026 ± 0.0015
423.63 K, 8770 kPa, Liquid	0.05731 ± 0.00072
423.63 K, 15380 kPa, Liquid	0.06255 ± 0.001
423.64 K, 15380 kPa, Liquid	0.06256 ± 0.001
